Measurements as given in patent US5451564A, “Antimicrobial composition comprising N-hydroxy heterocyclic thiones” (priority 1991, dated 1995).

How the values were obtained:
[1] = aqueous solubility of zinc complex after milling in pyrophosphate solution and dilution with distilled water until clear; assay type: physicochemical; conditions: for solubility in the presence of pyrophosphate (in words): relative to absence of oxy-phosphorus compound
Protocol: The concentration of the 2:1 zinc complex was then determined.
The zinc complex was milled in a 0.1 molar solution of tetrasodium pyrophosphate as described in Example 1. This was then diluted with distilled water until a clear solution was obtained.
These solutions were prepared by the method described in Example 1.

[2] = test system: Pseudomonas aeruginosa (ATCC 19429); assay: survival of bacteria in shampoo preserved with biocide; assay type: cell-based
Protocol: A shampoo having the following composition
*Empicol, Empilan and Empigen are registered Trademarks of Albright and Wilson, was prepared by stirring the Empicol ESB70 in water, and then adding the Empilan 2502 followed by the Empigen BB to give a clear homogenous solution. An aqueous solution of citric acid was added with stirring to give a pH of 7. Finally, the sodium chloride was added and the whole diluted to parts by adding water.
Aliquots (20 parts) of the above shampoo were then prepared with concentrations of the biocides indicated in Table 4 at 500, 125, 31.25 and 7.8 ppm of active ingredient.
The above samples were then challenged with a 0.2 parts by volume inoculum of a 24 hour culture of Pseudomonas aeruginosa (ATCC 19429) containing approximately 1×10^8 colony forming units (cfu's) per milliliter. The samples were then incubated in the dark at 25° C., 1 milliliter samples taken after 24 hours, 48 hours and 7 days and the number of surviving bacteria determined.
The procedure described in Example 7 was repeated, except that the compounds and formulations used in that example were replaced by a commercially available formulation of zinc pyrithione or a 1% dispersion of the 2:1 complex of 1-hydroxy-2-pyridinethione and zinc in an aqueous solution of 0.1M tetrasodium pyrophosphate prepared as described in Example 1.

[3] = test system: bacteria, fungi, yeasts and algae; conditions: in the presence of pyrophosphate salts
Protocol: Further aspects of the present invention are described in the following illustrative examples. Unless otherwise stated all refer to parts by weight.
(§1) In the microbiological testing, the compositions were tested for anti-microbial activity against bacteria and/or fungi including a yeast. The bacteria used were one or more of Eshcerichia coli, Pseudomonas aeruginosa, Staphylococcus aureus and Bacillus subtills. The fungi/yeast used were one or more of Aspergillus niger, Candida albicans, Aureobasidum pullulans, Gliocladium roseum, and Penicillium pinophilum.

[4] = test system: Eshcerichia coli; conditions: agar, 4 days at 25° C; 1% dispersion in 0.1 molar pyrophosphate (sample a: nil)
Protocol: as §1
(§2) These test organisms will be referred to hereafter as EC, PA, SA, BS, AN CA, AP, GR and PP respectively.
(§3) The material to be tested was dissolved in a suitable solvent and the solution obtained diluted with a further quantity of the same solvent to give a desired product concentration.
(§4) To a suitable agar medium was added a quantity of the product solution to give a desired concentration of the product. The agar medium containing the product was poured into petri dish plates and allowed to set.
(§5) The test organisms were surface inoculated onto the test plates by means of a multi-point inoculator. Each test plate was inoculated with both bacteria, fungi and yeast. The plates were incubated for four days at 25° C.
(§6) At the end of the incubation period, the plates were assessed visually for growth of the micro-organisms. The concentration of the product which inhibited the growth of a particular micro-organisms was recorded. This is the minimum inhibitory concentration (M.I.C.).
(§7) Generally, the compositions are evaluated against bacteria at the 25 and 100 ppm levels, and against fungi and yeast at the 5, 25 and 100 ppm levels.
(§8) 1% dispersions of the 1:2 zinc complex obtained from 1-hydroxy-2-pyridinethione were prepared in 0.1 molar solutions of various pyrophosphates as described in Example 1.

[5] = test system: Candida albicans; conditions: agar, 4 days at 25° C; 1% dispersion in 0.1 molar pyrophosphate (sample a: nil)
Protocol: as §1, §2, §3, §4, §5, §6, §7, §8

[6] = test system: Pseudomonas aeruginosa; conditions: agar, 4 days at 25° C; 1% dispersion in 0.1 molar pyrophosphate (sample a: nil)
Protocol: as §1, §2, §3, §4, §5, §6, §7, §8

[7] = test system: Gliocladium roseum; conditions: agar, 4 days at 25° C; 1% dispersion in 0.1 molar pyrophosphate (sample a: nil)
Protocol: as §1, §2, §3, §4, §5, §6, §7, §8

[8] = test system: Bacillus subtills; conditions: agar, 4 days at 25° C; 1% dispersion in 0.1 molar pyrophosphate (sample a: nil)
Protocol: as §1, §2, §3, §4, §5, §6, §7, §8

[9] = test system: Aspergillus niger; conditions: agar, 4 days at 25° C; 1% dispersion in 0.1 molar pyrophosphate (sample a: nil)
Protocol: as §1, §2, §3, §4, §5, §6, §7, §8

[10] = test system: Staphylococcus aureus; conditions: agar, 4 days at 25° C; 1% dispersion in 0.1 molar pyrophosphate (sample a: nil)
Protocol: as §1, §2, §3, §4, §5, §6, §7, §8

[11] = test system: Aureobasidum pullulans; conditions: agar, 4 days at 25° C; 1% dispersion in 0.1 molar pyrophosphate (sample a: nil)
Protocol: as §1, §2, §3, §4, §5, §6, §7, §8

[12] = test system: Penicillium pinophilum; conditions: agar, 4 days at 25° C; 1% dispersion in 0.1 molar pyrophosphate (sample a: nil)
Protocol: as §1, §2, §3, §4, §5, §6, §7, §8

[13] = test system: mixed algal suspension (Stichococcus bacillaris, Gloecapsa alpicola, Nostoc commune, Trentepohlia aurea); conditions: zinc complex of 1-hydroxy-2-pyridinethione as 1% dispersion in 0.1M pyrophosphate (sample a: nil); re-challenge after 2 weeks, examined after 4 weeks
Protocol: A sample containing no biocide was include as a control.
The above aliquots were then inoculated with 0.1 parts by volume of a mixed algal suspension of 7 day cultures of the following algae.
The samples were then incubated at 15° to 20° C. and exposed to artificial illumination of between 700 and 1200 LUX over a two week period, where the illumination was provided from the side and the light varied over a 24 hour period to give 16 hours illumination and 8 hours darkness.
After a two week incubation period, the samples were re-challenged with the mixed algal inoculum, and again examined after a 4 week incubation period. The minimum inhibitory concentration at which algal growth was suppressed was then established by visual assessment.

| Compound | solubility in the presence of pyrophosphate (in words) [1] | Solubility ([1]; zinc dithiocarbamate complexes, nil or 0.1 M tetrasodium pyrophosphate) | viable bacteria ([2]; 125 ppm, after 24 HRS) | viable bacteria ([2]; 125 ppm, after 48 HRS) | viable bacteria ([2]; 500 ppm, after 7 DAYS) | viable bacteria ([2]; 500 ppm, after 24 HRS) | viable bacteria ([2]; 500 ppm, after 48 HRS) | effect of increased solubility in pyrophosphate on microbiological activity [3] | Solubility ([1]; 1:2 zinc complex of 1-hydroxy-2-pyridinethione, pebble milled in 0.1 molar pyrophosphate salt (sample a: nil), diluted with distilled water) | MIC EC [4] | MIC CA [5] | MIC PA [6] | MIC GR [7] | MIC BS [8] | MIC AN [9] | MIC SA [10] | MIC AP [11] | MIC PP [12] | MIC (algal growth suppressed) [13] |
| --- | --- | --- | --- | --- | --- | --- | --- | --- | --- | --- | --- | --- | --- | --- | --- | --- | --- | --- | --- |
| S=C([S-])NCCNC(=S)[S-].[Zn+2] [EBD, zinc complex of ethylene bis dithiocarbamate] | increased solubility | < 5 ppm | – | – | – | – | – | – | – | – | – | – | – | – | – | – | – | – | – |
| CN(C)C(=S)[S-].CN(C)C(=S)[S-].[Zn+2] [ZDM, zinc complex of dimethyldithiocarbamate] | – | – | < 10 | < 10 | < 10 | < 10 | < 10 | – | – | – | – | – | – | – | – | – | – | – | – |
| On1ccccc1=S.On1ccccc1=S.[Zn] [a, 1:2 zinc complex of 1-hydroxy-2-pyridinethione] | improved solubility | – | – | – | – | – | – | does not adversely affect the microbiological activity | < 10 ppm | 25 ppm | 25 ppm | NA (Not active at 100 ppm) | 5 ppm | 25 ppm | 25 ppm | 25 ppm | 5 ppm | 5 ppm | 0.64 ppm |
